Legend:
FVII gene = conditions: mice, siRNA formulations of the amino lipid; cited from earlier work
[1] = Particle size analysis of LNPs by dynamic light scattering; format: physicochemical; conditions: firefly luciferase mRNA LNP, ionizable lipid/DSPC/chol/PEG-DMG 50/10/38.5/1.5 mol %; for polydispersity index (PDI): N/P 6; for particle size (number-weighted average diameter): N/P 6, in PBS
Description: (§1) Lipids used in the formulation, nor-MC3, 4, DSPC, cholesterol, and PEG-DMG, were dissolved in ethanol at the appropriate ratios to a final concentration of 10 mM total lipid. Nucleic acid (mRNA) was dissolved in an appropriate buffer such as 25 mM sodium acetate pH 4 or sodium citrate pH 4 to a concentration necessary to achieve the appropriate amine-to-phosphate ratios. The aqueous and organic solutions were mixed using a rapid-mixing device as described in Kulkami et al., 2018, ACS Nano, 12:4787 and Kulkami et al., 2017, Nanoscale, 36:133347 (each incorporated herein by reference) at a flow rate ratio of 3:1 (v/v; respectively) and a total flow rate of 20 mL/min. The resultant mixture was dialyzed directly against 1000-fold volume of PBS pH 7.4. All formulations were concentrated using an Amicon™ centrifugal filter unit and analysed using the methods described below.
Particle size analysis of LNPs in PBS was carried out using backscatter measurements of dynamic light scattering with a Malvern Zetasizer™ (Worcestershire, UK). The reported particle sizes correspond to the number-weighted average diameters (nm). Total lipid concentrations were determined by extrapolation from the cholesterol content, which was measured using the Cholesterol E-Total Cholesterol Assay (Wako Diagnostics, Richmond, VA) as per the manufacturer's recommendations. Encapsulation efficiency of the formulations was determined using the Quant-iT RiboGreen™ Assay kit (Invitrogen, Waltham, MA). Briefly, the total mRNA content in solution was measured by lysing lipid nanoparticles in a solution of Tris-EDTA (TE) containing 2% Triton Tx-100, and free […] in solution (external to LNP) was measured based on the RiboGreen™ fluorescence in a TE solution without Triton. Total mRNA content in the formulation was determined using a modified Bligh-Dyer extraction procedure. Briefly, LNP formulations containing mRNA were dissolved in a mixture of chloroform, methanol, and PBS that results in a single phase and the absorbance at 260 nm measured using a spectrophotometer.

[2] = Encapsulation efficiency, Quant-iT RiboGreen assay; format: physicochemical; conditions: firefly luciferase mRNA LNP, ionizable lipid/DSPC/chol/PEG-DMG 50/10/38.5/1.5 mol %, N/P 6
Description: as §1
Particle size analysis of LNPs in PBS was carried out using backscatter measurements of dynamic light scattering with a Malvern Zetasizer™ (Worcestershire, UK). […] Total lipid concentrations were determined by extrapolation from the cholesterol content, which was measured using the Cholesterol E-Total Cholesterol Assay (Wako Diagnostics, Richmond, VA) as per the manufacturer's recommendations. Encapsulation efficiency of the formulations was determined using the Quant-iT RiboGreen™ Assay kit (Invitrogen, Waltham, MA). […]

liver = assay: In vivo transfection of firefly luciferase mRNA-LNP, luciferase assay of liver; conditions: CD-1 mice, intravenous, 4 hours post-administration, mRNA LNP 50/10/38.5/1.5 mol %, N/P 6
Description: as §1
(§2) LNP-mRNA encoding firefly luciferase were injected intravenously (tail-vein) into 6-8 week old CD-1 mice. Four hours following injection, the animals were euthanized and the liver and spleen were isolated. Tissue was homogenized in Glo Lysis™ buffer and a luciferase assay performed using the Steady Glo Luciferase™ assay kit (as per manufacturers recommendations).

spleen = assay: In vivo transfection of firefly luciferase mRNA-LNP, luciferase assay of spleen; conditions: CD-1 mice, intravenous, 4 hours post-administration, mRNA LNP 50/10/38.5/1.5 mol %, N/P 6
Description: as §1, §2

Row | Molecule | ED50 for FVII gene silencing (FVII gene) [mg/kg] | polydispersity index (PDI) [1] | particle size (number-weighted average diameter) [1] | entrapment / encapsulation efficiency [2] [%] | luminescence intensity/mg of liver, relative to the nor-MC3 formulation (liver) | luminescence intensity/mg of spleen, relative to the nor-MC3 formulation (spleen)
1 | CCCCC/C=C\C/C=C\CCCCCCCCC1(CCCCCCCC/C=C\C/C=C\CCCCC)OCC(CCN(C)C)O1 (stereo not drawn) [KC2] | 0.1 |  |  |  |  | 
2 | CCCCCSCSCCCCCCCCC1(CCCCCCCCSCSCCCCC)OCC(CCN(C)C)O1 (stereo not drawn) [Lipid 4, 2-(2,2-bis(8-(((pentylthio)methyl)thio)octyl)-1,3-dioxolan-4-yl)-N,N-dimethyl-ethan-1-amine] |  | about 0.090 | about 50.0 nm | ~90 | trend was reversed in the liver | higher luminescence intensity in the spleen
3 | nor-MC3 [reference compound] |  | about 0.075 | about 39.9 nm | 94 |  | 

Reference: patent publication US20250304547A1, “Sulfur-Containing Lipids” (NanoVation Therapeutics Inc., priority 2022, published 2025)
